According to patent US4347361A, “4,5α-Epoxy-3-hydroxy or methoxy-7-(1-hydroxy-alkyl or 1-oxoalkyl)morphinan-6-one compounds” (SISA, Incorporated, priority 1980, dated 1982):

Experiments:
[1] = system: male CD-1 mice (acetic acid writhing); experiment: acetic acid mouse writhing test (analgesic effects); type: in vivo, mice (male CD-1); details: subcutaneous; for ED50: sc, 0.25 h, acetic acid i.p. 15 min post drug, read-out: ED50 (dose required to reduce the number of writhes by 50%); for ED50: Ia at dose: at 10 (mg/kg), Ia not defined; for % reduction of number of writhes (ED50 column, X%(Y)): at 10 mg/kg
Method: (A) Analgesic effects upon mice (acetic acid writhing test).
The analgesic effects of test compounds were determined in mice by use of the acetic acid writhing test described by B. A. Whittle, Brit. J. Pharmacol., 22:246 (1964). In this test at least three groups of five male CD-1 mice each were given subcutaneous doses of the test drug dissolved in either distilled water or distilled water acidified with HCl depending on the solubility of the compound. Fifteen (15) minutes post drug, 0.4 milliliter of a 0.75% or 1.0% or 0.6 milliliter of a 1.0% V/V acetic acid in distilled water solution was administered intraperitoneally. The number of writhes in a 20 minute interval beginning 5 minutes after the acetic acid injection were determined and compared with the number of writhes in control groups which had received only acetic acid.
Percent inhibition of writhing was calculated as: [formula]
The ED50 dose, i.e., the dose required to reduce the number of writhes by 50%, was determined graphically from a plot of % inhibition as a probit versus log dose. Confidence limits of 95% were calculated on the basis of those results falling in the range 16-84% inhibition. See Litchfield, J. T. and Wilcoxon, F., J. Pharmacol. Exp. Ther., 96:99, (1949).

[2] = system: male albino Wistar rats (morphine effect, tail flick); experiment: narcotic antagonist activity, modified rat tail flick test (inhibition of morphine effect); type: in vivo; details: intraperitoneal; for AD50: Ia at dose: at 10 (mg/kg), Ia not defined; for AD50: Ia at dose / AD50: X%(Y): vs ED80 morphine; for ED50: ip, 10 min before ED80 dose of morphine s.c., read-out: AD50 (dose required to inhibit the morphine effect by 50%)
Method: (B) Narcotic antagonist activity in rats (modified rat tail flick test).
The narcotic antagonist effects of test compounds were determined by a modification of the rat tail flick procedure of Harris and Pierson, J. Pharmacol. Exp. Ther. 143:141 (1964).
Male albino Wistar rats (100-120 g.) were used for this study. A rat's tail is so placed so as to cover a photocell. Heat is applied by a lamp in a reflector with a timer being connected to the lamp and photocell so that the timer goes on when the light is turned on and is turned off when the photocell is uncovered. A rheostat, incorporated into a heating lamp is used to adjust the intensity of the light falling on the tail of the rat such that the rat's control reaction time is from 1.2 to 5.8 seconds. Animals with a control reaction time outside this range are rejected. The rheostat adjustment is made only if a significant proportion (more than 1 out of every 10 rats) of the reaction times are outside the range of 1.2 to 5.8 seconds. Groups of five rats were used each time, and two control times were determined at least 30 minutes apart.
The test drug was given intraperitoneally and this was followed ten minutes later by an ED80 dose of morphine subcutaneously. The animals were retested at 20 minutes after the morphine injection. Control animals were given morphine only. […] The data were calculated as follows: [formula]
The data were plotted on log-probit paper and AD50 values, i.e., the dose required to inhibit the morphine effect by 50% within 95% confidence limits, were determined by the method of Litchfield and Wilcoxon.

Structure (SMILES)	ED50 [1]	ED50 [2]	other results
CCCCCC(=O)C1C[C@H]2[C@H]3Cc4ccc(OC)c5c4[C@@]2(CCN3C)[C@@H](O5)C1=O (stereo partly drawn) [MLS-5682]	4 mg/kg		
COc1ccc2c3c1O[C@H]1C(=O)C(C(=O)CCCc4ccccc4)C[C@H]4[C@@H](C2)N(C)CC[C@]314 (stereo partly drawn) [MLS-5683, 7-(4-Phenylbutyroyl)Dihydrocodeinone]	0.41 mg/kg		
COc1ccc2c3c1O[C@H]1C(=O)C(C(=O)CCc4ccccc4)C[C@H]4[C@@H](C2)N(C)CC[C@]314 (stereo partly drawn) [MLS-5688H]	0.62 mg/kg		
CCCCCC(=O)C1C[C@H]2[C@H]3Cc4ccc(O)c5c4[C@@]2(CCN3C)[C@@H](O5)C1=O (stereo partly drawn) [MLS-5689]	0.76 mg/kg		
CN1CC[C@]23c4c5ccc(O)c4O[C@H]2C(=O)C(C(=O)CCc2ccccc2)C[C@H]3[C@H]1C5 (stereo partly drawn) [MLS-5690]	0.105 mg/kg		
CN1CC[C@]23c4c5ccc(O)c4O[C@H]2C(=O)C(C(=O)CCCc2ccccc2)C[C@H]3[C@H]1C5 (stereo partly drawn) [MLS-5691, 7-(4-Phenylbutyroyl)Dihydromorphone]	0.0052 mg/kg		
CCCC(=O)C1C[C@H]2[C@H]3Cc4ccc(OC)c5c4[C@@]2(CCN3C)[C@@H](O5)C1=O (stereo partly drawn) [MLS-5692]			ED50: Ia at dose [1]: Ia
CCCCCC(C)(O)C1C[C@H]2[C@H]3Cc4ccc(O)c5c4[C@@]2(CCN3C)[C@@H](O5)C1=O (stereo partly drawn) [MLS-5694]	2.9 mg/kg		
CCCC(=O)C1C[C@H]2[C@H]3Cc4ccc(O)c5c4[C@@]2(CCN3C)[C@@H](O5)C1=O (stereo partly drawn) [MLS-5695]	5.25 mg/kg		
COc1ccc2c3c1O[C@H]1C(=O)C(C(C)=O)C[C@H]4[C@@H](C2)N(CC2CC2)CC[C@]314 (stereo partly drawn) [TR-5463]			% reduction of number of writhes (ED50 column, X%(Y)) [1]: 9%; AD50: Ia at dose [2]: Ia
CCCC(=O)C1C[C@H]2[C@H]3Cc4ccc(OC)c5c4[C@@]2(CCN3CC2CC2)[C@@H](O5)C1=O (stereo partly drawn) [TR-5464]	2.81 mg/kg	8.1 mg/kg	
CC(=O)C1C[C@H]2[C@H]3Cc4ccc(O)c5c4[C@@]2(CCN3CC2CC2)[C@@H](O5)C1=O (stereo partly drawn) [TR-5475]	4.05 mg/kg	1.3 mg/kg	
CCCC(=O)C1C[C@H]2[C@H]3Cc4ccc(O)c5c4[C@@]2(CCN3CC2CC2)[C@@H](O5)C1=O (stereo partly drawn) [TR-5476, 17-cyclopropylmethyl-4,5α-epoxy-3-hydroxy-7-butanoylmorphinan-6-one]	4.65 mg/kg	2.55 mg/kg	
COc1ccc2c3c1O[C@H]1C(=O)C(C(C)(C)O)C[C@H]4[C@@H](C2)N(CC2CC2)CC[C@]314 (stereo partly drawn) [TR-5479]			ED50: Ia at dose [1]: Ia; AD50: X%(Y) ([2]; at 10 mg/kg): 41%
COc1ccc2c3c1O[C@H]1C(=O)C(C(C)(C)O)C[C@H]4[C@@H](C2)N(C)CC[C@]314 (stereo partly drawn) [TR-5492]	4.5 mg/kg		
CCCC(C)(O)C1C[C@H]2[C@H]3Cc4ccc(OC)c5c4[C@@]2(CCN3CC2CC2)[C@@H](O5)C1=O (stereo partly drawn) [TR-5499]	0.42 mg/kg		AD50: X%(Y) ([2]; at 7 mg/kg): 12%
COc1ccc2c3c1O[C@H]1C(=O)C(C(=O)c4ccccc4)C[C@H]4[C@@H](C2)N(CC2CC2)CC[C@]314 (stereo partly drawn) [TR-5501]	11.3 mg/kg	8 mg/kg	
CCCCCC(=O)C1C[C@H]2[C@H]3Cc4ccc(OC)c5c4[C@@]2(CCN3CC2CC2)[C@@H](O5)C1=O (stereo partly drawn) [TR-5504]	5.7 mg/kg		AD50: Ia at dose [2]: Ia
CCCCCC(=O)C1C[C@H]2[C@H]3Cc4ccc(O)c5c4[C@@]2(CCN3CC2CC2)[C@@H](O5)C1=O (stereo partly drawn) [TR-5505]	0.29 mg/kg	22 mg/kg	

Structure (SMILES)	ED50 [1]	ED50 [2]	other results
O=C(c1ccccc1)C1C[C@H]2[C@H]3Cc4ccc(O)c5c4[C@@]2(CCN3CC2CC2)[C@@H](O5)C1=O (stereo partly drawn) [TR-5506]	4.35 mg/kg	0.24 mg/kg	
COc1ccc2c3c1O[C@H]1C(=O)C(C(=O)C(C)C)C[C@H]4[C@@H](C2)N(CC2CC2)CC[C@]314 (stereo partly drawn) [TR-5509]	7.5 mg/kg	2.8 mg/kg	
CC(C)C(=O)C1C[C@H]2[C@H]3Cc4ccc(O)c5c4[C@@]2(CCN3CC2CC2)[C@@H](O5)C1=O (stereo partly drawn) [TR-5511]	> 10 mg/kg	0.81 mg/kg	
CCCCC(=O)C1C[C@H]2[C@H]3Cc4ccc(OC)c5c4[C@@]2(CCN3CC2CC2)[C@@H](O5)C1=O (stereo partly drawn) [TR-5519]	> 10 mg/kg		AD50: Ia at dose [2]: Ia
CCCCC(=O)C1C[C@H]2[C@H]3Cc4ccc(O)c5c4[C@@]2(CCN3CC2CC2)[C@@H](O5)C1=O (stereo partly drawn) [TR-5520]	1.59 mg/kg		AD50: X%(Y) ([2]; at 10 mg/kg): 77%
CCCCCC(C)(O)C1C[C@H]2[C@H]3Cc4ccc(O)c5c4[C@@]2(CCN3CC2CC2)[C@@H](O5)C1=O (stereo partly drawn) [TR-5538]	0.28 mg/kg	6.6 mg/kg	
CCCCCCC(=O)C1C[C@H]2[C@H]3Cc4ccc(OC)c5c4[C@@]2(CCN3CC2CC2)[C@@H](O5)C1=O (stereo partly drawn) [TR-5539]	> 10 mg/kg	> 10 mg/kg	
CCCCCCC(=O)C1C[C@H]2[C@H]3Cc4ccc(O)c5c4[C@@]2(CCN3CC2CC2)[C@@H](O5)C1=O (stereo partly drawn) [TR-5540]	0.4 mg/kg		AD50: Ia at dose [2]: Ia
CCCC(C)(O)C1C[C@H]2[C@H]3Cc4ccc(O)c5c4[C@@]2(CCN3CC2CC2)[C@@H](O5)C1=O (stereo partly drawn) [TR-5543, 17-cyclopropylmethyl-4,5α-epoxy-3-hydroxy-7-(1-hydroxy-1-methylbutyl)morphinan-6-one]	1.8 mg/kg	2.8 mg/kg	
CCCCC(C)(O)C1C[C@H]2[C@H]3Cc4ccc(OC)c5c4[C@@]2(CCN3CC2CC2)[C@@H](O5)C1=O (stereo partly drawn) [TR-5544]			% reduction of number of writhes (ED50 column, X%(Y)) [1]: 10%; AD50: Ia at dose [2]: Ia
CCCCC(C)(O)C1C[C@H]2[C@H]3Cc4ccc(O)c5c4[C@@]2(CCN3CC2CC2)[C@@H](O5)C1=O (stereo partly drawn) [TR-5551]		2.5 mg/kg	% reduction of number of writhes (ED50 column, X%(Y)) [1]: 40%
CCC(=O)C1C[C@H]2[C@H]3Cc4ccc(OC)c5c4[C@@]2(CCN3CC2CC2)[C@@H](O5)C1=O (stereo partly drawn) [TR-5570]		6.5 mg/kg	% reduction of number of writhes (ED50 column, X%(Y)) [1]: 11%
COc1ccc2c3c1O[C@H]1C(=O)C(C(=O)C(C)(C)C)C[C@H]4[C@@H](C2)N(CC2CC2)CC[C@]314 (stereo partly drawn) [TR-5571]			ED50: Ia at dose [1]: Ia; AD50: X%(Y) ([2]; at 10 mg/kg): 13%
CC(C)C(C)(O)C1C[C@H]2[C@H]3Cc4ccc(O)c5c4[C@@]2(CCN3CC2CC2)[C@@H](O5)C1=O (stereo partly drawn) [TR-5572]	7.8 mg/kg	2.2 mg/kg	
CCC(=O)C1C[C@H]2[C@H]3Cc4ccc(O)c5c4[C@@]2(CCN3CC2CC2)[C@@H](O5)C1=O (stereo partly drawn) [TR-5573]		0.51 mg/kg	ED50: Ia at dose [1]: Ia
CC(C)(C)CC(=O)C1C[C@H]2[C@H]3Cc4ccc(O)c5c4[C@@]2(CCN3CC2CC2)[C@@H](O5)C1=O (stereo partly drawn) [TR-5574]		> 10 mg/kg	ED50: Ia at dose [1]: Ia
COc1ccc2c3c1O[C@H]1C(=O)C(C(=O)c4ccc(F)cc4)C[C@H]4[C@@H](C2)N(CC2CC2)CC[C@]314 (stereo partly drawn) [TR-5575]			ED50: Ia at dose [1]: Ia; AD50: X%(Y) ([2]; at 10 mg/kg): 17%
COc1ccc2c3c1O[C@H]1C(=O)C(C(=O)Cc4ccccc4)C[C@H]4[C@@H](C2)N(CC2CC2)CC[C@]314 (stereo partly drawn) [TR-5577]			% reduction of number of writhes (ED50 column, X%(Y)) [1]: 21%; AD50: Ia at dose [2]: Ia
O=C(c1ccc(F)cc1)C1C[C@H]2[C@H]3Cc4ccc(O)c5c4[C@@]2(CCN3CC2CC2)[C@@H](O5)C1=O (stereo partly drawn) [TR-5579]			% reduction of number of writhes (ED50 column, X%(Y)) [1]: 29%; AD50: X%(Y) ([2]; at 10 mg/kg): 45%
